Test results as given in patent US7420001B2 (Wyeth, priority 2003, dated 2008).

Experiments:
MMP-2 = molecular target: T1, MMP-2 (Homo sapiens, UniProt P08253); test: In-vitro fluorescence assay of MMP-2 activity; assay type: biochemical; settings: recombinant human MMP-2; read-out: MMP-2 IC50
T1 construct: purchased Oncogene Research Products (Calbiochem) PF023
T1 sequence (P08253 110-660): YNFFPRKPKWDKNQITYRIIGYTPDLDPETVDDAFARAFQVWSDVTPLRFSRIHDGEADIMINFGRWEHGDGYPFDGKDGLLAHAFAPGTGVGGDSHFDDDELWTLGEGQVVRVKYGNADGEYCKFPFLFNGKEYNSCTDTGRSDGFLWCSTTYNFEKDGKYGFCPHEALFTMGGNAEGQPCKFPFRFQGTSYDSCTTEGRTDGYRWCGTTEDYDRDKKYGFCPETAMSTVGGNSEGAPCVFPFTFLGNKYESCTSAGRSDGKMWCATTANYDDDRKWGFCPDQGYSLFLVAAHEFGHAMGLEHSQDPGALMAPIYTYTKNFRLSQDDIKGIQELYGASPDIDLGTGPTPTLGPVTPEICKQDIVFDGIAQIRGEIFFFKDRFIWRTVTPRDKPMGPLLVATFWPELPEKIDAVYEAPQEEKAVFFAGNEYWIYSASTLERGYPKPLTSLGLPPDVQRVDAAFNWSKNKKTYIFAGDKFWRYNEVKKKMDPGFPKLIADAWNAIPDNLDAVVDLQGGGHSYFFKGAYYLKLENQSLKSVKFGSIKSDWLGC
Source text: A continuous assay was used in which the substrate is a synthetic peptide containing a fluorescent group (7-methoxycoumarin; Mca) which is quenched by energy transfer to a 2,4-dinitrophenyl group. […] The source of enzyme in the assay was the recombinant human MMP-2 (66 kDa) purchased from Oncogene Research Products (catalog number PF023 from Calbiochem). The substrate used was Mca-PQGL-(3-[2,4-dinitrophenyl]-L-2,3-diaminopropionyl)-AR-OH (denoted as Wammp-5, custom synthesized by AnaSpec, Inc.). The assay buffer consisted of 50 mM Hepes (pH 7.4), 100 mM NaCl, 5 mM CaCl2, and 0.005% Brij-35. […] The enzymatic reactions were initiated by adding the substrate to a final concentration of 20 μM, and mixing 10 times with a pipette. The final DMSO concentration in the assay was 6.0%.
Plots of the inhibitor concentration vs. the percent inhibition were fit to the following equation: y=(a−d)/[1+(x/c)^b]+d, a general sigmoidal curve with Hill slope, a to d. x is the inhibitor concentration under test. y is the percent inhibition. a is the limiting response as x approaches zero. As x increases without bound, y tends toward its limit d. c is the inflection point (IC50) for the curve. That is, y is halfway between the lower and upper asymptotes when x=c. b is the slope factor or Hill coefficient.

MMP-13 = molecular target: T2, MMP-13 (Homo sapiens, UniProt P45452); test: In-vitro fluorescence assay of MMP-13 activity; assay type: biochemical; settings: recombinant human catalytic domain of MMP-13; read-out: MMP-13 IC50
T2 construct: made in house

SMILES	IC50 (MMP-2) [nM]	IC50 (MMP-13) [nM]
COc1c(C)ccc2oc(C(=O)Nc3ccc(-c4ccc(S(=O)(=O)N[C@H](C(=O)O)C(C)C)cc4)cc3)c(C)c12 [Example 125, (S)-2-{4′-[(5-Methyl-4-methoxy-3-methyl-benzofuran-2-carbonyl)-amino]-biphenyl-4-sulfonylamino}-3-methyl-butyric acid]	1610	4.9
CC(C)[C@H](NS(=O)(=O)c1ccc(-c2ccc(NC(=O)c3nc4ccccc4o3)cc2)cc1)C(=O)O [Example 127, (S)-3-Methyl-2-{4′-[(benzooxazole-2-carbonyl)-amino]-biphenyl-4-sulfonylamino}-butyric acid]	47	0.8
Cc1cccc2oc(C(=O)Nc3ccc(-c4ccc(S(=O)(=O)N[C@H](C(=O)O)C(C)C)cc4)cc3)nc12 [Example 128, (S)-3-Methyl-2-{4′-[(4-methyl-benzooxazole-2-carbonyl)-amino]-biphenyl-4-sulfonylamino}-butyric acid]	59.5	2.8
CC(C)[C@H](NS(=O)(=O)c1ccc(-c2ccc(NC(=O)c3nc4cc(Cl)ccc4s3)cc2)cc1)C(=O)O [Example 130, (S)-3-Methyl-2-{4′-[(5-chloro-benzothiazole-2-carbonyl)-amino]-biphenyl-4-sulfonylamino}-butyric acid]	25.9	2
CC(C)[C@H](NS(=O)(=O)c1ccc(-c2ccc(NC(=O)c3nc4cc(C(F)(F)F)ccc4s3)cc2)cc1)C(=O)O [Example 131, (S)-3-Methyl-2-{4′-[(5-trifluoromethyl-benzothiazole-2-carbonyl)-amino]-biphenyl-4-sulfonylamino}-butyric acid]	149	17
CC(C)[C@@H](NS(=O)(=O)c1ccc(-c2ccc(OCc3nc4ccccc4n3C)cc2)cc1)C(=O)O [Example 138, D-3-Methyl-2-[4′-(1-methyl-1H-benzoimidazol-2-ylmethoxy)-biphenyl-4-sulfonylamino]-butyric acid]	1120	89.3
COc1c(Cl)ccc2oc(COc3ccc(-c4ccc(S(=O)(=O)N[C@H](C(=O)O)C(C)C)cc4)cc3)c(C)c12 [Example 142, L-2-[4′-(5-Chloro-4-methoxy-3-methylbenzofuran-2-ylmethoxy)-biphenyl-4-sulfonylamino]-3-methyl butyric acid]	130	2.1
COc1c(C#N)ccc2oc(COc3ccc(-c4ccc(S(=O)(=O)N[C@H](C(=O)O)C(C)C)cc4)cc3)c(C)c12 [Example 143, L-2-[4′-(5-Cyano-4-methoxy-3-methylbenzofuran-2-ylmethoxy)-biphenyl-4-sulfonylamino]-3-methyl butyric acid]	64	1.2
CCc1cccc2oc(COc3ccc(-c4ccc(S(=O)(=O)N[C@H](C(=O)O)C(C)C)cc4)cc3)c(C)c12 [Example 146, L-2-[4′-(4-Ethyl-3-methylbenzofuran-2-ylmethoxy)-biphenyl-4-sulfonylamino]-3-methyl butyric acid]	207	1.2
Cc1c(COc2ccc(-c3ccc(S(=O)(=O)N[C@@H](C(=O)O)C(C)C)cc3)cc2)oc2ccc(Br)c(OC(C)C)c12 [Example 149, N-({4′-[(5-Bromo-4-isopropoxy-3-methyl-1-benzofuran-2-yl)methoxy]-1,1′-biphenyl-4-yl}sulfonyl)-D-valine]	375	7.9
COc1c(Br)ccc2oc(CNc3ccc(-c4ccc(S(=O)(=O)N[C@H](C(=O)O)C(C)C)cc4)cc3)c(C)c12 [Example 150, N-[(4′-{[(5-bromo-4-methoxy-3-methyl-1-benzofuran-2-yl)methyl]amino}-1,1′-biphenyl-4-yl)sulfonyl]-L-valine]	198	8.1
Cc1c(C(=O)Nc2ccc(-c3ccc(S(=O)(=O)N[C@H](C(=O)O)C(C)C)cc3)cc2)oc2ccc3ccccc3c12 [Example 154, L-3-Methyl-2-{4′-[(1-methyl-naphtho[2,1-b]furan-2-carbonyl)-amino]-biphenyl-4-sulfonylamino}-butyric acid]	60	1.7
COC(=O)C(C)(C)Oc1cccc2oc(C(=O)Nc3ccc(-c4ccc(S(=O)(=O)N[C@H](C(=O)O)C(C)C)cc4)cc3)c(C)c12 [Example 156, L-2-(4′-{[4-(1-Methoxycarbonyl-1-methyl-ethoxy)-3-methyl-benzofuran-2-carbonyl]-amino}-biphenyl-4-sulfonylamino)-3-methyl-butyric acid]	6200	25
CCOC(=O)COc1cccc2oc(C(=O)Nc3ccc(-c4ccc(S(=O)(=O)N[C@H](C(=O)O)C(C)C)cc4)cc3)c(C)c12 [Example 157, L-2-{4′-[(4-Ethoxycarbonylmethoxy-3-methyl-benzofuran-2-carbonyl)-amino]-biphenyl-4-sulfonylamino}-3-methyl-butyric acid]	2050	8.8
COC(=O)COc1cccc2oc(C(=O)Nc3ccc(-c4ccc(S(=O)(=O)N[C@H](C(=O)O)C(C)C)cc4)cc3)c(C)c12 [Example 158, L-2-{4′-[(4-Methoxycarbonylmethoxy-3-methyl-benzofuran-2-carbonyl)-amino]-biphenyl-4-sulfonylamino}-3-methyl-butyric acid]	1840	8.7
Cc1c(C(=O)Nc2ccc(-c3ccc(S(=O)(=O)N[C@H](C(=O)O)C(C)C)cc3)cc2)oc2cccc(OCC(=O)O)c12 [Example 159, L-2-{4′-[(4-Carboxymethoxy-3-methyl-benzofuran-2-carbonyl)-amino]-biphenyl-4-sulfonylamino}-3-methyl-butyric acid]	3520	8.5
Cc1c(C(=O)Nc2ccc(-c3ccc(S(=O)(=O)N[C@H](C(=O)O)C(C)C)cc3)cc2)oc2cccc(OCc3cccnc3)c12 [Example 160, L-3-Methyl-2-(4′-{[3-methyl-4-(pyridin-3-ylmethoxy)-benzofuran-2-carbonyl]-amino}-biphenyl-4-sulfonylamino)-butyric acid]	4550	9.5
Cc1c(C(=O)Nc2ccc(-c3ccc(S(=O)(=O)N[C@H](C(=O)O)C(C)C)cc3)cc2)oc2cccc(O)c12 [Example 161, L-2-{4′-[(4-Hydroxy-3-methyl-benzofuran-2-carbonyl)-amino]-biphenyl-4-sulfonylamino}-3-methyl-butyric acid]	379	6.1
CCn1c(C(=O)Nc2ccc(-c3ccc(S(=O)(=O)N[C@H](C(=O)O)C(C)C)cc3)nc2)nc2ccccc21 [Example 162, L-2-(4-{5-[(1-Ethyl-1H-benzimidazole-2-carbonyl)-amino]-pyridin-2-yl}-benzenesulfonylamino)-3-methyl-butyric acid]	2610	85
CC(C)[C@H](NS(=O)(=O)c1ccc(-c2ccc(NC(=O)c3cc(-c4ccc(Cl)cc4)no3)cc2)cc1)C(=O)O [Example 166, (S)-2-(4′-{[3-(4-Chloro-phenyl)-isoxazole-5-carbonyl]-amino}-biphenyl-4-sulfonylamino)-3-methyl-butyric acid]	5.8	3.1
Cc1c(C(=O)Nc2ccc(-c3ccc(S(=O)(=O)N[C@H](C(=O)O)C(C)C)cc3)cc2)oc2cccc(OCC(=O)N(C)C)c12 [Example 176, (S)-2-{4′-[(4-Dimethylcarbamoylmethoxy-3-methyl-benzofuran-2-carbonyl)-amino]-biphenyl-4-sulfonylamino}-3-methyl-butyric acid]	4340	20
